biological target: T1, MAGL (recombinant wild-type) (Homo sapiens, UniProt Q99685); test: MAGL inhibitory activity, hydrolysis of 4-nitrophenylacetate to 4-nitrophenol (absorbance at 405 nm); assay type: biochemical; conditions: 1 nM MAGL, 300 μM 4-nitrophenylacetate, 15 min preincubation at RT, slope of absorbance at 405 nm between 5 and 80 min
T1 sequence (Q99685 1-303): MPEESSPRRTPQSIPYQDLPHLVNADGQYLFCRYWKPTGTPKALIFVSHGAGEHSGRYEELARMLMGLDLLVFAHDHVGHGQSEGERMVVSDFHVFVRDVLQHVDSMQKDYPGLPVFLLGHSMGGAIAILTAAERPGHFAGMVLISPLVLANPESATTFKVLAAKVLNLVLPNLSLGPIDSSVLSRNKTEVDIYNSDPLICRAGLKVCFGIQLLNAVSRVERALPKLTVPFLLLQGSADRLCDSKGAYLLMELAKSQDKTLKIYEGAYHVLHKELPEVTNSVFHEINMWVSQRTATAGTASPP
Description: Compounds were profiled for MAGL inhibitory activity by measuring the enzymatic activity of MAGL by following the hydrolysis of 4-nitorphenylacetate resulting in 4-nitrophenol, which absorbs at 405-412 nm (G. G. Muccioli, G. Labar, D. M. Lambert, Chem. Bio. Chem. 2008, 9, 2704-2710).
The assay was carried out in 384 well assay plates (black with clear bottom, non-binding surface treated, Corning Ref. 3655) in a total volume of 40 μL. Compound dilutions were made in 100% DMSO (VWR Chemicals 23500.297) in a polypropylene plate in 3-fold dilution steps to give a final concentration range in the assay from 25 μM to 1.7 nM. 1 μL compound dilutions (100% DMSO) were added to 19 μL MAGL (recombinant wild-type) in assay buffer (50 mM TRIS (GIBCO, 15567-027), 1 mM EDTA (Fluka, 03690-100 ml)). The plate was shaked for 1 min at 2000 rpm (Variomag Teleshake) and then incubated for 15 min at RT. To start the reaction, 20 μL 4-Nitrophenlyacetate (Sigma N-8130) in assay buffer with 6% EtOH was added. The final concentrations in the assay were 1 nM MAGL and 300 μM 4-Nitrophenylacetate. After shaking (1 m, 2000 rpm) and 5 min incubation at RT, the absorbance at 405 nm was measured for a first time (Molecular Devices, SpectraMax Paradigm). A second measurement was then done after incubation for 80 min at RT. From the two measurements, the slope was calculated by subtracting the first from the second measurement.

SMILES | IC50
O=C1COc2ccc(C(=O)N3CCN(Cc4ccccc4)CC3)cc2N1 [Example 2, 6-(4-benzylpiperazine-1-carbonyl)-4H-1,4-benzoxazin-3-one] | 3.72 µM
O=C1COc2ccc(C(=O)N3CCC(O)(Cc4ccccc4)CC3)cc2N1 [Example 7, 6-(4-benzyl-4-hydroxypiperidine-1-carbonyl)-4H-1,4-benzoxazin-3-one] | 4.35 µM
O=C1COc2ccc(C(=O)N3CCC(S(=O)(=O)c4ccccc4)CC3)cc2N1 [Example 10, 6-[4-(benzenesulfonyl)piperidine-1-carbonyl]-4H-1,4-benzoxazin-3-one] | 4.22 µM
O=C1COc2ccc(C(=O)N3CCC(N4C[C@H](c5ccccc5)OC4=O)CC3)cc2N1 [Example 11, 6-[4-[(5S)-2-oxo-5-phenyl-1,3-oxazolidin-3-yl]piperidine-1-carbonyl]-4H-1,4-benzoxazin-3-one] | 1.26 µM
O=C1COc2ccc(C(=O)N3CCC(C(=O)c4ccccc4)CC3)cc2N1 [Example 13, 6-(4-benzoylpiperidine-1-carbonyl)-4H-1,4-benzoxazin-3-one] | 0.32 µM
O=C1COc2ccc(C(=O)N3CCC(Oc4ccccc4)CC3)cc2N1 [Example 14, 6-(4-phenoxypiperidine-1-carbonyl)-4H-1,4-benzoxazin-3-one] | 0.99 µM
O=C1COc2ccc(C(=O)N3CCC(Oc4ccccc4)C3)cc2N1 (stereo not drawn) [Example 18, 6-(3-phenoxypyrrolidine-1-carbonyl)-4H-1,4-benzoxazin-3-one] | 1.04 µM
O=C1COc2ccc(C(=O)N3CCC(N4C[C@@H](c5ccccc5)OC4=O)CC3)cc2N1 [Example 19, 6-[4-[(5R)-2-oxo-5-phenyl-1,3-oxazolidin-3-yl]piperidine-1-carbonyl]-4H-1,4-benzoxazin-3-one] | 2.49 µM
N#Cc1ccc(CC2CCN(C(=O)c3ccc4c(c3)NC(=O)CO4)CC2)cc1 [Example 20, 4-[[1-(3-oxo-4H-1,4-benzoxazine-6-carbonyl)piperidin-4-yl]methyl]benzonitrile] | 0.37 µM
O=C1COc2ccc(C(=O)N3CCC(Cc4ccccn4)CC3)cc2N1 [Example 22, 6-[4-(pyridin-2-ylmethyl)piperidine-1-carbonyl]-4H-1,4-benzoxazin-3-one] | 1.7 µM
CN(C(=O)c1ccccc1)C1CCN(C(=O)c2ccc3c(c2)NC(=O)CO3)CC1 [Example 25, N-methyl-N-[1-(3-oxo-4H-1,4-benzoxazine-6-carbonyl)piperidin-4-yl]benzamide] | 0.83 µM
O=C1COc2ccc(C(=O)N3CCC(Cc4ccccc4)CC3)nc2N1 [Example 26, 6-(4-benzylpiperidine-1-carbonyl)-4H-pyrido[3,2-b][1,4]oxazin-3-one] | 2.06 µM
O=C1COc2ccc(C(=O)N3CCC(C(=O)N4CCCCC4)CC3)cc2N1 [Example 27, 6-[4-(piperidine-1-carbonyl)piperidine-1-carbonyl]-4H-1,4-benzoxazin-3-one] | 4.24 µM
O=C1COc2ccc(C(=O)N3CCC(Cc4ccccc4)C3)cc2N1 (stereo not drawn) [Example 28, 6-(3-benzylpyrrolidine-1-carbonyl)-4H-1,4-benzoxazin-3-one] | 0.84 µM
O=C1COc2ccc(C(=O)N3CCC(Cc4ccc(C(F)(F)F)cc4)C3)cc2N1 (stereo not drawn) [Example 31, 6-[3-[[4-(trifluoromethyl)phenyl]methyl]pyrrolidine-1-carbonyl]-4H-1,4-benzoxazin-3-one] | 0.4 µM
O=C1COc2ccc(C(=O)N3CCN(C(=O)c4ccc(C(F)(F)F)cc4)CC3)cc2N1 [Example 32, 6-[4-[4-(trifluoromethyl)benzoyl]piperazine-1-carbonyl]-4H-1,4-benzoxazin-3-one] | 2.18 µM
O=C1COc2ccc(C(=O)N3CCC(N(C(=O)Cc4ccccc4)C4CC4)CC3)cc2N1 [Example 33, N-cyclopropyl-N-[1-(3-oxo-4H-1,4-benzoxazine-6-carbonyl)piperidin-4-yl]-2-phenylacetamide] | 0.31 µM
CC1CN(C(=O)c2ccc3c(c2)NC(=O)CO3)CCN1Cc1ccc(C(F)(F)F)cc1 (stereo not drawn) [Example 34, 6-[3-methyl-4-[[4-(trifluoromethyl)phenyl]methyl]piperazine-1-carbonyl]-4H-1,4-benzoxazin-3-one] | 0.449 µM
O=C1COc2ccc(C(=O)N3CCN(CCc4cccc(Cl)c4)C(c4cc[nH]n4)C3)cc2N1 (stereo not drawn) [Example 35, 6-[4-[2-(3-chlorophenyl)ethyl]-3-(1H-pyrazol-3-yl)piperazine-1-carbonyl]-4H-1,4-benzoxazin-3-one] | 1.83 µM

The next compounds have a lower IC50 than those just listed; values first:

IC50 | SMILES
0.101 µM | O=C1COc2ccc(C(=O)N3CCC(Cc4ccccc4)CC3)cc2N1 [Example 1, 6-(4-benzylpiperidine-1-carbonyl)-4H-1,4-benzoxazin-3-one]
0.088 µM | O=C1COc2ccc(C(=O)N3CCC(Cc4ccc(F)cc4)CC3)cc2N1 [Example 3, 6-[4-[(4-fluorophenyl)methyl]piperidine-1-carbonyl]-4H-1,4-benzoxazin-3-one]
0.0347 µM | O=C1COc2ccc(C(=O)N3CCC(Cc4ccc(C(F)(F)F)cc4)CC3)cc2N1 [Example 4, 6-[4-[[4-(trifluoromethyl)phenyl]methyl]piperidine-1-carbonyl]-4H-1,4-benzoxazin-3-one]
0.17 µM | COc1ccc(CC2CCN(C(=O)c3ccc4c(c3)NC(=O)CO4)CC2)cc1 [Example 5, 6-[4-[(4-methoxyphenyl)methyl]piperidine-1-carbonyl]-4H-1,4-benzoxazin-3-one]
0.052 µM | COc1cccc(CC2CCN(C(=O)c3ccc4c(c3)NC(=O)CO4)CC2)c1 [Example 6, 6-[4-[(3-methoxyphenyl)methyl]piperidine-1-carbonyl]-4H-1,4-benzoxazin-3-one]
0.047 µM | O=C1COc2ccc(C(=O)N3CCC(Cc4cccc(F)c4)CC3)cc2N1 [Example 8, 6-[4-[(3-fluorophenyl)methyl]piperidine-1-carbonyl]-4H-1,4-benzoxazin-3-one]
0.058 µM | O=C1COc2ccc(C(=O)N3CCC(Cc4cc(F)cc(F)c4)CC3)cc2N1 [Example 9, 6-[4-[(3,5-difluorophenyl)methyl]piperidine-1-carbonyl]-4H-1,4-benzoxazin-3-one]
0.048 µM | O=C1COc2ccc(C(=O)N3CCC(Cc4ccc(Cl)cc4)CC3)cc2N1 [Example 12, 6-[4-[(4-chlorophenyl)methyl]piperidine-1-carbonyl]-4H-1,4-benzoxazin-3-one]
0.076 µM | O=C1COc2ccc(C(=O)N3CCC(Oc4ccc(C(F)(F)F)cc4)CC3)cc2N1 [Example 15, 6-[4-[4-(trifluoromethyl)phenoxy]piperidine-1-carbonyl]-4H-1,4-benzoxazin-3-one]
0.066 µM | O=C1COc2ccc(C(=O)N3CCC(Cc4cccc(F)c4F)CC3)cc2N1 [Example 16, 6-[4-[(2,3-difluorophenyl)methyl]piperidine-1-carbonyl]-4H-1,4-benzoxazin-3-one]
0.0395 µM | O=C1COc2ccc(C(=O)N3CCC(Cc4cccc(C(F)(F)F)c4)CC3)cc2N1 [Example 17, 6-[4-[[3-(trifluoromethyl)phenyl]methyl]piperidine-1-carbonyl]-4H-1,4-benzoxazin-3-one]
0.13 µM | O=C1COc2ccc(C(=O)N3CCC(Cc4ccccc4-c4ccccc4)CC3)cc2N1 [Example 21, 6-[4-[(2-phenylphenyl)methyl]piperidine-1-carbonyl]-4H-1,4-benzoxazin-3-one]
0.3 µM | O=C1COc2ccc(C(=O)N3CCC(F)(Cc4ccc(Cl)cc4)CC3)cc2N1 [Example 23, 6-[4-[(4-chlorophenyl)methyl]-4-fluoropiperidine-1-carbonyl]-4H-1,4-benzoxazin-3-one]
0.14 µM | O=C1COc2c(F)cc(C(=O)N3CCC(Cc4ccccc4)CC3)cc2N1 [Example 24, 6-(4-benzylpiperidine-1-carbonyl)-8-fluoro-4H-1,4-benzoxazin-3-one]
0.15 µM | O=C1COc2ccc(C(=O)N3CC(Cc4ccc(C(F)(F)F)cc4)C3)cc2N1 [Example 29, 6-[3-[[4-(trifluoromethyl)phenyl]methyl]azetidine-1-carbonyl]-4H-1,4-benzoxazin-3-one]
0.22 µM | O=C1COc2ccc(C(=O)N3CCC(Cc4cccc(C(F)(F)F)c4)C3)cc2N1 (stereo not drawn) [Example 30, 6-[3-[[3-(trifluoromethyl)phenyl]methyl]pyrrolidine-1-carbonyl]-4H-1,4-benzoxazin-3-one]
0.112 µM | O=C1COc2ccc(C(=O)N3CCN(Cc4ccc(C(F)(F)F)cc4)C(C(F)(F)F)C3)cc2N1 (stereo not drawn) [Example 36, 6-[3-(trifluoromethyl)-4-[[4-(trifluoromethyl)phenyl]methyl]piperazine-1-carbonyl]-4H-1,4-benzoxazin-3-one]

From patent US20230183224A1, “BEZOXAZINE DERIVATIVES USEFUL AS MONOACYLGLYCEROL LIPASE INHIBITORS” (Hoffmann-La Roche Inc., priority 2017, published 2023)
